Source: article PMC9805530 (European journal of medicinal chemistry, 2022)
Entries after “also recorded” stand apart in the source; their conditions may differ.

Assays:
Sirt6 [1] = molecular target: T1, Sirt6 (Homo sapiens, UniProt Q8N6T7); experiment: Sirt6-dependent peptide deacetylation, Fluor de Lys; conditions: for Activation Fold 100 μM: compound at 100 μM; for Activation Fold 100 μM / Activation Fold 30 μM: mean ± SD, at least two independent experiments; for effect on Sirt6 activity (time course): Fig. 3A; for Activation Fold 30 μM: compound at 30 μM
Sirt5 = molecular target: T2, Sirt5 (Homo sapiens, UniProt Q9NXA8); experiment: Fluorogenic Sirt5 Assay Kit; type: biochemical; conditions: 100 μM compounds, 37 °C 30 min
T2 sequence (Q9NXA8 37-310): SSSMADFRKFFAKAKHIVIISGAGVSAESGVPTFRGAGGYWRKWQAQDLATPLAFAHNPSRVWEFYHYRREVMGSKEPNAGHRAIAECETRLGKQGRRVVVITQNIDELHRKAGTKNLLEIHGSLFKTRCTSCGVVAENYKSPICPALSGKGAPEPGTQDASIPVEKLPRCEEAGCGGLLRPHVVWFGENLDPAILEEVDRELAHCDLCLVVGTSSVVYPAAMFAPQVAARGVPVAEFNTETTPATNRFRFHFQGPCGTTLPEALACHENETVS

Sirt6 [2] = molecular target: T1, Sirt6; type: biochemical; conditions: 100 μM, 30 °C, 60 minutes
R28 cells = experiment: MTT cell viability assay; type: cell-based; conditions: 100 μM, 24 hours
H1299 cells [3] = experiment: Acetylated H3K9 to total H3 in cancer cells; type: cell-based; conditions: 30 μM, 24 hours
PLC/PRF/5 cells [4] = experiment: Acetylated H3K9 to total H3 in cancer cells; type: cell-based; conditions: 30 μM, 24 hours
H1299 cells [5] = experiment: Colony formation assay; type: cell-based; conditions: 30 μM, one week
PLC/PRF/5 cells [6] = experiment: Colony formation assay; type: cell-based; conditions: 30 μM, one week
Sirt1 = molecular target: T3, Sirt1 (Homo sapiens, UniProt Q96EB6); experiment: Sirt1 deacetylation Activity Assay Kit; conditions: time course, Fig. 3
T3 sequence (Q96EB6 1-747): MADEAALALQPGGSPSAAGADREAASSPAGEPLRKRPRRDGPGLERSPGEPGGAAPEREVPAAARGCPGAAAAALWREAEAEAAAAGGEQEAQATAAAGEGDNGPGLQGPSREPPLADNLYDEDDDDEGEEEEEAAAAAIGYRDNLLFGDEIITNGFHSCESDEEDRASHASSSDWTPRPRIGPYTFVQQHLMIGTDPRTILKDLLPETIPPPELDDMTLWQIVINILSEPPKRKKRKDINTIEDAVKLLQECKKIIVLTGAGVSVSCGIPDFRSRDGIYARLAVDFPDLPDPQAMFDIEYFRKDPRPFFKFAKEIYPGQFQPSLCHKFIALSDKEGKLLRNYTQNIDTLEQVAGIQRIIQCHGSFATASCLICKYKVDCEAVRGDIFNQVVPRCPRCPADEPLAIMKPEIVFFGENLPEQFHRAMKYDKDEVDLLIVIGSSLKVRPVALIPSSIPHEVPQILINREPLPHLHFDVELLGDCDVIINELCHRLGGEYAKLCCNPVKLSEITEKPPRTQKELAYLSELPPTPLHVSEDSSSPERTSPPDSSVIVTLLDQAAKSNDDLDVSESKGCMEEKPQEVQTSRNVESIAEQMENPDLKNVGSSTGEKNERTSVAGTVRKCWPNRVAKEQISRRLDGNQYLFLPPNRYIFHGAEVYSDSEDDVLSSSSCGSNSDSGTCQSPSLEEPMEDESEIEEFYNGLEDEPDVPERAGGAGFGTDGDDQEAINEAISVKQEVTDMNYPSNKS

Sirt2 = molecular target: T4, Sirt2 (Homo sapiens, UniProt Q8IXJ6); experiment: Sirt2 deacetylation Activity Assay Kit; conditions: time course, Fig. 3
T4 sequence (Q8IXJ6 1-389): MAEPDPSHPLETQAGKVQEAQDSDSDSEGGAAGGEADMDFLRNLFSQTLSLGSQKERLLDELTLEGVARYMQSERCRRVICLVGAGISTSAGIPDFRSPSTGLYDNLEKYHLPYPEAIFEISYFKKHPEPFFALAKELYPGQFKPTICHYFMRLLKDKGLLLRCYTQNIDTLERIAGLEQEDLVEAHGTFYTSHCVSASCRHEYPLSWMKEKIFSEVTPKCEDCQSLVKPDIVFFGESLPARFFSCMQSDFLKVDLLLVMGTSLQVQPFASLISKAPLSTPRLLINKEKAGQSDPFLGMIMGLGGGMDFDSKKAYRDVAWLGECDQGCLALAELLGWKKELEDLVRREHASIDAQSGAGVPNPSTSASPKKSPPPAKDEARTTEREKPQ

BV2 cells = experiment: LPS-induced inflammatory gene mRNA expression; conditions: 30 μM pretreatment 30 minutes, 100 ng/mL LPS 6 hours

T1 sequence (Q8N6T7 whole entry): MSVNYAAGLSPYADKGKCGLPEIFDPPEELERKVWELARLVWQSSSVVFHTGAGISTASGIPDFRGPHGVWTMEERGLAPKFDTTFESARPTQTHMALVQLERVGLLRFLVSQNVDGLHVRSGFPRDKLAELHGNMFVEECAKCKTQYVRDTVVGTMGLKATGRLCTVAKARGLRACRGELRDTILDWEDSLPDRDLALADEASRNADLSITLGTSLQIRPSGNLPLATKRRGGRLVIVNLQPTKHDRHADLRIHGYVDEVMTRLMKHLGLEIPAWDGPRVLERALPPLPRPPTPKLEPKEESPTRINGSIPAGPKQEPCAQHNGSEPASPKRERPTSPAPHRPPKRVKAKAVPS

| SMILES | Activation Fold 100 μM (Sirt6 [1]) | effect on Sirt5 desuccinylation activity (Sirt5) | acetylation of H3K9 in the nucleosome test (Sirt6 [2]) | effect on Sirt1 deacetylation activity (Sirt1) | effect on Sirt2 deacetylation activity (Sirt2) | effect on Sirt6 activity (time course) (Sirt6 [1]) | LPS-induced expression of IL-1β (BV2 cells) | LPS-induced expression of IL-6 (BV2 cells) | LPS-induced expression of MCP-1 (BV2 cells) | LPS-induced expression of TNFα (BV2 cells) | ICAM-1 induction (BV2 cells) | LPS-induced CXCL10 expression (BV2 cells) | LPS-induced iNOS expression (BV2 cells) | further results |
| --- | --- | --- | --- | --- | --- | --- | --- | --- | --- | --- | --- | --- | --- | --- |
| FC1(F)CCN(c2ncccc2C2Nc3ccccc3-n3cccc32)CC1 (stereo not drawn) [Compound 25, 4-(2-(4,4-Difluoropiperidin-1-yl)pyridin-3-yl)-4,5-dihydropyrrolo[1,2-a]quinoxaline] | ~ 2 fold | – | – | – | – | – | – | – | – | – | – | – | – | – |
| COCCN1CCN(c2ncccc2C2Nc3ccccc3-n3cccc32)CC1 (stereo not drawn) [Compound 36, 4-(2-(4-(2-Methoxyethyl)piperazin-1-yl)pyridin-3-yl)-4,5-dihydropyrrolo[1,2-a]quinoxaline] | – | no significant effects | significantly decreased | no significant effects | no significant effects | specifically promoted | strongly inhibited | strongly inhibited | strongly inhibited | strongly inhibited | – | – | – | toxicity on R28 cells (R28 cells): no obvious toxicity; Sirt6-dependent deacetylation of H3K9 (acetylated H3K9 to total H3) (H1299 cells [3]): significantly activated Sirt6 to deacetylate H3K9; decrease of acetylated H3K9 when Sirt6 knockdown by siRNA (H1299 cells [3]; Sirt6 siRNA): abolished; Sirt6-dependent deacetylation of H3K9 (acetylated H3K9 to total H3) (PLC/PRF/5 cells [4]): significantly activated Sirt6 to deacetylate H3K9; decrease of acetylated H3K9 when Sirt6 knockdown by siRNA (PLC/PRF/5 cells [4]; Sirt6 siRNA): abolished; inhibition of colony formation (H1299 cells [5]): about half; inhibition of colony formation (PLC/PRF/5 cells [6]): about half |
| OCCN1CCN(c2ncccc2C2Nc3ccccc3-n3cccc32)CC1 (stereo not drawn) [Compound 35, 2-(4-(3-(4,5-Dihydropyrrolo[1,2-a]quinoxalin-4-yl)pyridin-2-yl)piperazin-1-yl)ethan-1-ol] | – | no significant effects | significantly decreased | no significant effects | no significant effects | specifically promoted | strongly inhibited | strongly inhibited | strongly inhibited | strongly inhibited | slight inhibition | – | – | toxicity on R28 cells (R28 cells): no obvious toxicity; Sirt6-dependent deacetylation of H3K9 (acetylated H3K9 to total H3) (H1299 cells [3]): no obvious influence; Sirt6-dependent deacetylation of H3K9 (acetylated H3K9 to total H3) (PLC/PRF/5 cells [4]): no obvious influence; inhibition of colony formation (H1299 cells [5]): only a slight inhibitory effect; inhibition of colony formation (PLC/PRF/5 cells [6]): only a slight inhibitory effect |
| O=S1(=O)CCN(c2ncccc2C2Nc3ccccc3-n3cccc32)CC1 (stereo not drawn) [Compound 26, 4-(3-(4,5-Dihydropyrrolo[1,2-a]quinoxalin-4-yl)pyridin-2-yl)thiomorpholine 1,1-dioxide] | ~ 2 fold | – | – | – | – | – | – | – | – | – | – | – | – | – |
| OC1CCN(c2ncccc2C2Nc3ccccc3-n3cccc32)CC1 (stereo not drawn) [Compound 27, 1-(3-(4,5-Dihydropyrrolo[1,2-a]quinoxalin-4-yl)pyridin-2-yl)piperidin-4-ol] | ~ 2 fold | – | – | – | – | – | – | – | – | – | – | – | – | – |

Continued, in another order:

| Activation Fold 100 μM (Sirt6 [1]) | effect on Sirt5 desuccinylation activity (Sirt5) | acetylation of H3K9 in the nucleosome test (Sirt6 [2]) | effect on Sirt1 deacetylation activity (Sirt1) | effect on Sirt2 deacetylation activity (Sirt2) | effect on Sirt6 activity (time course) (Sirt6 [1]) | SMILES | LPS-induced expression of IL-1β (BV2 cells) | LPS-induced expression of IL-6 (BV2 cells) | LPS-induced expression of MCP-1 (BV2 cells) | LPS-induced expression of TNFα (BV2 cells) | ICAM-1 induction (BV2 cells) | LPS-induced CXCL10 expression (BV2 cells) | LPS-induced iNOS expression (BV2 cells) | further results |
| --- | --- | --- | --- | --- | --- | --- | --- | --- | --- | --- | --- | --- | --- | --- |
| 6.29 ± 0.02 fold | no significant effects | significantly decreased | no significant effects | no significant effects | specifically promoted | c1ccc2c(c1)NC(c1cccnc1N1CCN(CCn3ccnc3)CC1)c1cccn1-2 (stereo not drawn) [Compound 50, 4-(2-(4-(2-(1H-Imidazol-1-yl)ethyl)piperazin-1-yl)pyridin-3-yl)-4,5-dihydropyrrolo[1,2-a]quinoxaline] | strongly inhibited; also recorded: almost reversed | strongly inhibited; also recorded: almost reversed | strongly inhibited; also recorded: almost reversed | strongly inhibited | slight inhibition | significantly repressed | significantly repressed | Activation Fold 30 μM (Sirt6 [1]): 3.34 ± 0.19 fold |
| 5.38 ± 0.29 fold | no significant effects | no effect | no significant effects | no significant effects | specifically promoted | c1ccc2c(c1)NC(c1cccnc1N1CCN(CCN3CCCC3)CC1)c1cccn1-2 (stereo not drawn) [Compound 47, 4-(2-(4-(2-(Pyrrolidin-1-yl)ethyl)piperazin-1-yl)pyridin-3-yl)-4,5-dihydropyrrolo[1,2-a]quinoxaline] | strongly inhibited; also recorded: almost reversed | strongly inhibited; also recorded: almost reversed | strongly inhibited; also recorded: almost reversed | strongly inhibited | slight inhibition | significantly repressed | significantly repressed | VCAM-1 induction (BV2 cells): obviously inhibit; Activation Fold 30 μM (Sirt6 [1]): 4.80 ± 0.19 fold |
| – | no significant effects | significantly decreased | no significant effects | no significant effects | specifically promoted | OC1CN(CCN2CCN(c3ncccc3C3Nc4ccccc4-n4cccc43)CC2)C1 (stereo not drawn) [Compound 46, 1-(2-(4-(3-(4,5-Dihydropyrrolo[1,2-a]quinoxalin-4-yl)pyridin-2-yl)piperazin-1-yl)ethyl)azetidin-3-ol] | strongly inhibited; also recorded: almost reversed | strongly inhibited; also recorded: almost reversed | strongly inhibited; also recorded: almost reversed | strongly inhibited | – | significantly repressed | significantly repressed | VCAM-1 induction (BV2 cells): obviously inhibit |
